Reference: ChEMBL document CHEMBL2073754, “Cotransport of reduced glutathione with bile salts by MRP4 (ABCC4) localized to the basolateral hepatocyte membrane” (Hepatology, 2003)

Legend:
Type in all cases: functional, cell membranes, Membrane vesicle
Parameters in all cases: scale not given: the % may be the effect or the level left
MRP4 (ABCC4) [1] = target: T1, MRP4 (ABCC4) (Homo sapiens, UniProt O15439); assay: TP_TRANSPORTER: inhibition of Taurocholate uptake in the presence of Dipyridamole at a concentration of 20uM in membrane vesicles from MRP4-expressing V79 cells; conditions: hamster, probe taurocholate, read-out: Activity
T1 sequence (O15439 whole entry): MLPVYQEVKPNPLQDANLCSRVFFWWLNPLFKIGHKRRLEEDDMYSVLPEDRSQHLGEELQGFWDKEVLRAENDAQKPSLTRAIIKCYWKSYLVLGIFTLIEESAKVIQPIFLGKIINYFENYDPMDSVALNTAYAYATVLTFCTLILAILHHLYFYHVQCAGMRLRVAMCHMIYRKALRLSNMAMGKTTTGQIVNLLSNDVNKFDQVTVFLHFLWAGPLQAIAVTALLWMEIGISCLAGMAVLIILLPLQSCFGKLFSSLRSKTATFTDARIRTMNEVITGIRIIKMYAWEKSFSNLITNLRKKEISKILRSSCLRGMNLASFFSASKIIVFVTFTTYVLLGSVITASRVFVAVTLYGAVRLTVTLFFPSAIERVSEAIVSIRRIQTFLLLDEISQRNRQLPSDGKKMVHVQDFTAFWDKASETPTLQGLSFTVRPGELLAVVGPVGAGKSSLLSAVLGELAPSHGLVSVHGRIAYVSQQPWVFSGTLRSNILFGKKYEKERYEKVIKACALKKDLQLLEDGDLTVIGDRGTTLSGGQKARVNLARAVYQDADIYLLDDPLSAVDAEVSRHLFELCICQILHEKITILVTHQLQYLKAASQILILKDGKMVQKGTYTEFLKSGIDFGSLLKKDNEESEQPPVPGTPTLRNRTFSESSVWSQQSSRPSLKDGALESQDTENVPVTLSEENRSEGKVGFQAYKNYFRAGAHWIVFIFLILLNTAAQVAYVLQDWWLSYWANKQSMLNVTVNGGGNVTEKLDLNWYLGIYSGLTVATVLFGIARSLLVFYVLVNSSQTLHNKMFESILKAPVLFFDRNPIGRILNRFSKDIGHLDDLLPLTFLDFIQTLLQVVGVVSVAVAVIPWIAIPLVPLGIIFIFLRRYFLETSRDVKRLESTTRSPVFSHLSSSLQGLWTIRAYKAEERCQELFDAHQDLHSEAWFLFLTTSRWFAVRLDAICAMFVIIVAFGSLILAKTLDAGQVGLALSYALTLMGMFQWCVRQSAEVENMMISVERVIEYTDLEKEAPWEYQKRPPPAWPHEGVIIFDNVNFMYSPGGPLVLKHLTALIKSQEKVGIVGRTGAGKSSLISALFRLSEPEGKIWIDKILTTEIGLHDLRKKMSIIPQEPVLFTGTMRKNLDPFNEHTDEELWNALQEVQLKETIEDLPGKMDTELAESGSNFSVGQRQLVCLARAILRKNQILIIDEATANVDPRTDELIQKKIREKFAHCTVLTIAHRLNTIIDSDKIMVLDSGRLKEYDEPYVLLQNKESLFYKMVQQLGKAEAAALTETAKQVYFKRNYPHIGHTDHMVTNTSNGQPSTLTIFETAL

MRP4 (ABCC4) [2] = target: T1, MRP4 (ABCC4); assay: TP_TRANSPORTER: inhibition of Taurocholate uptake in the presence of Folate at a concentration of 20uM in membrane vesicles from MRP4-expressing V79 cells; conditions: hamster, probe taurocholate, read-out: Activity
MRP4 (ABCC4) [3] = target: T1, MRP4 (ABCC4); assay: TP_TRANSPORTER: inhibition of Taurocholate uptake in the presence of Glycocholate at a concentration of 20uM in membrane vesicles from MRP4-expressing V79 cells; conditions: hamster, probe taurocholate, read-out: Activity
[4] = target: T2, ATP-binding cassette sub-family C member 4 (Homo sapiens, UniProt O15439); assay: TP_TRANSPORTER: inhibition of Taurocholate uptake in the presence of Lithocholate at a concentration of 20uM in membrane vesicles from MRP4-expressing V79 cells; conditions: hamster, v79, 20 µM
T2 sequence (O15439 whole entry): T1 sequence (O15439 whole entry)

MRP4 (ABCC4) [5] = target: T1, MRP4 (ABCC4); assay: TP_TRANSPORTER: inhibition of Taurocholate uptake in the presence of Lithoglycocholate at a concentration of 20uM in membrane vesicles from MRP4-expressing V79 cells; conditions: hamster, probe taurocholate, read-out: Activity
MRP4 (ABCC4) [6] = target: T1, MRP4 (ABCC4); assay: TP_TRANSPORTER: inhibition of Taurocholate uptake in the presence of Methotrexate at a concentration of 20uM in membrane vesicles from MRP4-expressing V79 cells; conditions: hamster, probe taurocholate, read-out: Activity
[7] = target: T2, ATP-binding cassette sub-family C member 4; assay: TP_TRANSPORTER: inhibition of Taurocholate uptake in the presence of MK-571 at a concentration of 20uM in membrane vesicles from MRP4-expressing V79 cells; conditions: hamster, v79, 20 µM
MRP4 (ABCC4) [8] = target: T1, MRP4 (ABCC4); assay: TP_TRANSPORTER: inhibition of Taurocholate uptake in the presence of Dehydroepiandrosterone-3-sulfate at a concentration of 5uM in membrane vesicles from MRP4-expressing V79 cells; conditions: hamster, probe taurocholate, read-out: Activity
[9] = target: T2, ATP-binding cassette sub-family C member 4; assay: TP_TRANSPORTER: inhibition of Taurocholate uptake in the presence of Probenecid at a concentration of 20uM in membrane vesicles from MRP4-expressing V79 cells; conditions: hamster, v79, 20 µM
MRP4 (ABCC4) [10] = target: T1, MRP4 (ABCC4); assay: TP_TRANSPORTER: inhibition of Taurocholate uptake by Taurochenodeoxycholate at a concentration of 20uM in membrane vesicles from MRP4-expressing V79 cells; conditions: hamster, probe taurocholate, read-out: Activity
MRP4 (ABCC4) [11] = target: T1, MRP4 (ABCC4); assay: TP_TRANSPORTER: inhibition of Taurocholate uptake in the presence of Tauroursodeoxycholate at a concentration of 20uM in membrane vesicles from MRP4-expressing V79 cells; conditions: hamster, probe taurocholate, read-out: Activity
MRP4 (ABCC4) [12] = target: T1, MRP4 (ABCC4); assay: TP_TRANSPORTER: inhibition of Taurocholate uptake in the presence of Ursodeoxycholate at a concentration of 20uM in membrane vesicles from MRP4-expressing V79 cells; conditions: hamster, probe taurocholate, read-out: Activity

OCCN(CCO)c1nc(N2CCCCC2)c2nc(N(CCO)CCO)nc(N3CCCCC3)c2n1 [DIPYRIDAMOLE]
activity at 20 µM (MRP4 (ABCC4) [1]): 32%

Nc1nc2ncc(CNc3ccc(C(=O)N[C@@H](CCC(=O)O)C(=O)O)cc3)nc2c(=O)[nH]1 [FOLIC ACID]
activity at 20 µM (MRP4 (ABCC4) [2]): 63%

C[C@H](CCC(=O)NCC(=O)O)[C@H]1CC[C@H]2[C@@H]3[C@H](O)C[C@@H]4C[C@H](O)CC[C@]4(C)[C@H]3C[C@H](O)[C@]12C [GLYCOCHOLIC ACID]
activity at 20 µM (MRP4 (ABCC4) [3]): 45%

C[C@H](CCC(=O)O)[C@H]1CC[C@H]2[C@@H]3CC[C@@H]4C[C@H](O)CC[C@]4(C)[C@H]3CC[C@]12C [LITHOCHOLIC ACID]
Activity [4]: 68%

C[C@H](CCC(=O)NCC(=O)O)[C@H]1CC[C@H]2[C@@H]3CC[C@@H]4C[C@H](O)CC[C@]4(C)[C@H]3CC[C@]12C [LITHOGLYCOCHOLATE]
activity at 20 µM (MRP4 (ABCC4) [5]): 9%

CN(Cc1cnc2nc(N)nc(N)c2n1)c1ccc(C(=O)N[C@@H](CCC(=O)O)C(=O)O)cc1 [METHOTREXATE]
activity at 20 µM (MRP4 (ABCC4) [6]): 39%

CN(C)C(=O)CCSC(SCCC(=O)O)c1cccc(/C=C/c2ccc3ccc(Cl)cc3n2)c1 (configuration not stated) [MK-571]
Activity [7]: 9%

C[C@]12CC[C@H](OS(=O)(=O)O)CC1=CC[C@@H]1[C@@H]2CC[C@]2(C)C(=O)CC[C@@H]12 [PRASTERONE SULFURIC ACID]
activity at 5 µM (MRP4 (ABCC4) [8]): 34%

CCCN(CCC)S(=O)(=O)c1ccc(C(=O)O)cc1 [PROBENECID]
Activity [9]: 52%

C[C@H](CCC(=O)NCCS(=O)(=O)O)[C@H]1CC[C@H]2[C@@H]3[C@H](O)C[C@@H]4C[C@H](O)CC[C@]4(C)[C@H]3CC[C@]12C [TAUROCHENODEOXYCHOLATE]
activity at 20 µM (MRP4 (ABCC4) [10]): 11%

C[C@H](CCC(=O)NCCS(=O)(=O)O)[C@H]1CC[C@H]2[C@@H]3[C@@H](O)C[C@@H]4C[C@H](O)CC[C@]4(C)[C@H]3CC[C@]12C [TAURURSODIOL]
activity at 20 µM (MRP4 (ABCC4) [11]): 26%

C[C@H](CCC(=O)O)[C@H]1CC[C@H]2[C@@H]3[C@@H](O)C[C@@H]4C[C@H](O)CC[C@]4(C)[C@H]3CC[C@]12C [URSODIOL]
activity at 20 µM (MRP4 (ABCC4) [12]): 18%
